Test [1] concerns the target T1, Aβ(1-40) peptide (Homo sapiens, UniProt P05067).
T1 construct: Synthetic Aβ(1-40) peptide was purchased from Biopeptide, Inc; purchased Biopeptide, Inc; host or cells: chemical synthesis
The test is described as follows: Intrinsic tyrosine fluorescence titration of Aβ(1-40) with vitamin B12. The following applies: 50 μM in PBS, 25° C., 1:1 binding stoichiometry, read-out: binding constant, KD. Here is the method:
Samples of Aβ(1-40) were reconstituted in phosphate buffer saline (PBS) (137 mM NaCl, 2.7 mM KCl, 10 mM Na2HPO4, 2 mM KH2PO4, pH 7.4), except in surface plasmon resonance experiments, as described below. Immediately after reconstitution into PBS, the pH of the solution was adjusted to 10, allowing for solubilization of the peptide. The pH was then readjusted to 7.4, followed by filtration through a 0.22 μm supor membrane filter. Concentrations of Aβ(1-40) were determined using UV-Vis spectroscopy (Cary 300 spectrophotometer, Varian, Inc) and an extinction coefficient of 1,490 M^−1 cm^−1 at 280 nm. Aβ(1-40) samples used in fluorescence experiments to examine peptide/B12 binding included freshly prepared, monomeric Aβ species and “aged” Aβ, incubated for seven days and containing high-molecular weight species.
Preparation of Vitamin B12 Samples. […] Concentrations of B12 were determined using UV-Vis spectroscopy (Cary300 spectrophotometer, Varian, Inc) and an extinction coefficient of 4,900 M^−1 cm^−1 at 525 nm.
Intrinsic Tyrosine Fluorescence Spectroscopy Experiments on Amyloid-Beta Peptide in the Presence of Vitamin B12. Intrinsic tyrosine fluorescence was measured as previously described by Lakowicz in Principles of Fluorescence Spectroscopy. […] The binding constant, KD, was calculated using equation (1) in SigmaPlot 9.0 (Systat Software, Inc.) assuming 1:1 binding stoichiometry. […]

A further test addresses T2, Aβ(1-40) (Homo sapiens, UniProt P05067).
T2 construct: Synthetic Aβ(1-40) peptide was purchased from Biopeptide, Inc; purchased Biopeptide, Inc; host or cells: chemical synthesis
The test is described as follows: Surface plasmon resonance (Biacore T-200), immobilized Aβ(1-40). The following applies: freshly prepared Aβ(1-40) immobilized on CM5 chip, 25° C., fit to 1:1 binding model; read-out: binding constant (SPR). On the procedure:
Surface Plasmon Resonance (SPR) Experiments. The binding of Aβ(1-40) and vitamin B12 was analyzed by SPR using a Biacore T-200 optical biosensor (Biacore/GE Healthcare). The Aβ peptide was immobilized on CM5 sensor chips using amine coupling chemistry. Briefly, the carboxymethyl dextran surface of a CM5 sensor chip was activated with a 1:1 mixture of 0.4 M 1-ethyl-3-(3-dimethylaminopropyl)-carbodiimide (EDC) and 0.1 M N-hydroxysuccinimide (NHS) at 25° C. A peptide surface (400-800 RU) was created by pulsing Aβ in 10 mM sodium acetate at pH 4.5 over the flow cell. The remaining binding sites on the dextran surface were blocked with […], pH 8.5. A reference surface was activated and blocked as outlined above.
Binding experiments were carried out using HBS-EP+ running buffer (0.1 M Hepes, 1.5 M NaCl, 30 mM EDTA, 0.05% v/v surfactant P-20, pH 7.4) at 25° C. All components were 0.22 μm-filtered prior to use. […] Data were analyzed using T200 BiaEvaluation 1.0 (Biacore) software and fit to a 1:1 binding model.
In the SPR experiments, freshly prepared Aβ(1-40) was immobilized on a chip. […] Referring to FIG. 7, a concentration dependent change in the refractive index at the surface of the chip was detected. This change, reflective of the Aβ peptide/B12 interaction, was monitored in real time. […]
Background: In SPR one partner is held on a chip, and binding of the other changes the refractive index at the surface.

Test [2] has as its target T1, Aβ(1-40) peptide. The test is described as follows: Thioflavin T fluorescence, fibril formation by Aβ(1-40). The following applies: Aβ(1-40) 30 μM, 37° C. It is filed as biochemical. Here is the method:
Thioflavin T Fluorescence Spectroscopy Experiments on Amyloid-Beta Peptide in the Presence of Vitamin B12. The Fluorescence signal was measured as previously described using a Biotek Flx800 fluorescence microplate reader. Aβ(1-40) peptide samples (30 μM) were incubated at 37° C. in the presence or absence of B12. Following incubation, ThT was added to a final concentration of 10 μM as a probe for fibril formation by Aβ(1-40). All fluoresce readings were corrected for 10 mM sodium phosphate buffer contribution. Thioflavin T (ThT) (Sigma Aldrich) was reconstituted in Nanopure water, aliquoted, and stored at −20° C. Concentration of ThT was determined using UV-Vis spectroscopy (Cary300 spectrophotometer, Varian, Inc) and an extinction coefficient of 36,000 M^−1 cm^−1 at 412 nm.

Another test relates to hippocampal neurons. The test is described as follows: Aβ-induced neuronal cell death in hippocampal cell culture, Trypan Blue counting. It is filed as cell-based, Wistar rat. Conditions: pre-aggregated Aβ(1-40) 25 μM, B12 50, 25 or 12.5 μM, 72 hours. Here is the method: Neuronal Cell Culture Experiments. Neuronal cell culture experiments were conducted using methodologies described previously by Lee, et al in Cell, Vol. 111(2), pages 219-230 (2002); Lei, et al in EMBO J, Vol. 21(12), pages 2977-2989 (2002); Xin, et al in J Neurosci, Vol. 25(1), pages 139-48 (2005); and Xin, et al in European Journal of Neuroscience, Vol. 21(3), pages 622-636 (2005).
Briefly, hippocampal tissue was dissected from Wistar rat embryos (18 days gestation or E18) at 4° C. Dissociated hippocampal neurons were plated at a density of approximately 2.0×10^4 cells/cm^2 onto 35 mm culture dishes coated with poly-D-lysine. Neurons were matured in culture for 21 days in vitro in NEUROBASAL® media (Invitrogen) supplemented with B27 (2%), bFGF2 (2 ng/mL) and L-glutamine (0.5 mM). The Aβ(1-40) was dissolved in DMSO, followed by dilution into culture medium (final DMSO concentration was 1%), and incubation at 37° C. for three days to form Aβ(1-40) oligomeric species. […]
Trypan Blue Staining and Cell Counting. […] Five random fields, one from each corner and one from the center of the dish, were counted for both live and dead cells at 63× magnification to obtain a percentage of cell death. […]
The physiological relevance of the B12/Aβ interaction was evaluated using neuronal cell culture experiments. […]

These results are taken from patent US10449213B2, “Combinatorial approach to treating Alzheimer's disease” (Florida State University Research Foundation, Inc., priority 2011, dated 2019).

The structures appear in SMILES notation. Read-outs that look alike come from different tables or passages of the source.

T1 sequence (P05067 672-711 limits assumed): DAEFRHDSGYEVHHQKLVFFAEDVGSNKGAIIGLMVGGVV
T2 sequence (P05067 672-711 limits assumed): as above

On to `C/C1=C2/[N-][C@H]([C@H](CC(N)=O)[C@@]2(C)CCC(=O)NC[C@@H](C)OP(=O)([O-])O[C@H]2[C@@H](O)[C@@H](n3cnc4cc(C)c(C)cc43)O[C@@H]2CO)[C@]2(C)N=C(/C(C)=C3N=C(/C=C4N=C1[C@@H](CCC(N)=O)C\4(C)C)[C@@H](CCC(N)=O)[C@]\3(C)CC(N)=O)[C@@H](CCC(N)=O)[C@]2(C)CC(N)=O.[Co+3].[OH-]` [vitamin B12, hydroxocobalamin], for which the Kd on Aβ(1-40) peptide [1] (monomeric (freshly prepared) Aβ(1-40)) stood at 87 ± 2.7 µM; on Aβ(1-40) peptide [1] (self-associated (aged, seven days) Aβ(1-40)), 96.1 ± 3.5 µM; at Aβ(1-40), 132 µM. For the same compound, the “ThT fluorescence after addition to pre-formed Aβ(1-40) aggregates (fibril dissociation)” value on Aβ(1-40) peptide [2] (B12 added to fibrils formed in its absence) was “reduction of the ThT fluorescence”. At Aβ(1-40) peptide [2] (incubated with B12), the “ThT fluorescence signal of Aβ(1-40) incubated in the presence of vitamin B12 (self-association)” value is given as “no increase in the ThT fluorescence signal”. For the same compound, the “neuronal cell death upon addition of amyloid-beta peptide” value in the test on hippocampal neurons is given as “alleviated”.
